This passage reports EC50 results from patent US20200131142A1, “FARNESOID X RECEPTOR AGONISTS AND USES THEREOF” (Metacrine, Inc., priority 2017, published 2020).

The term EC50 denotes the concentration giving half of the maximal effect. A low value points to a more potent agent.

In the experiment the target is T1, hFXR (Homo sapiens, UniProt Q96RI1).
T1 construct: expressed in transfected cells; host or cells: CV-1 cells
T1 sequence (Q96RI1 1-486): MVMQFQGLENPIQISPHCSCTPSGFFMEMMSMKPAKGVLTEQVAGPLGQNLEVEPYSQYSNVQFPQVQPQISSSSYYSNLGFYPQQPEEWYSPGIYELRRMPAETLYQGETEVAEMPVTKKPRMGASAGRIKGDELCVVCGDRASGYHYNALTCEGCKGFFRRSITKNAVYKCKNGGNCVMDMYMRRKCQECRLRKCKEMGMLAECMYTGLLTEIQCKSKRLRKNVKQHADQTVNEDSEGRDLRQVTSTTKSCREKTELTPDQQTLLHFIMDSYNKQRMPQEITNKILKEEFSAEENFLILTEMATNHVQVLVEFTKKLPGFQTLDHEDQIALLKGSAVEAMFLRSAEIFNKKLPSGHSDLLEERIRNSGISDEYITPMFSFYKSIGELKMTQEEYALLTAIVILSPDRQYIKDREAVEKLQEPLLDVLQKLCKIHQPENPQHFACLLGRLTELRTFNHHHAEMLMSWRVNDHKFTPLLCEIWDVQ
T1 sequence (P19793 1-462 partner): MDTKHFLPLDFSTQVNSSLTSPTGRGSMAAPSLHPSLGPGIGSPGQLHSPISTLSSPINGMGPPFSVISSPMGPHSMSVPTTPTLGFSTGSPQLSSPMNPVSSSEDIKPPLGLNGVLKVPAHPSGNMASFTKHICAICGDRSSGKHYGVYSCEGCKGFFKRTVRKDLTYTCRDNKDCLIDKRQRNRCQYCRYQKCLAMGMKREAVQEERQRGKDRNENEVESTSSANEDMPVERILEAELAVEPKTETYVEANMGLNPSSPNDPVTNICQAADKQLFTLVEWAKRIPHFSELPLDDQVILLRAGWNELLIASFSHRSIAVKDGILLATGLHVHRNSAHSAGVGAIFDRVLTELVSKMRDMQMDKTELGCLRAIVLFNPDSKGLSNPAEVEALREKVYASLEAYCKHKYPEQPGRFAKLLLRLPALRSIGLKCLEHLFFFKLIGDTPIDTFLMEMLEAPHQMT
The experiment is described as follows: In Vitro FXR Assay (TK): hFXR/hRXR TK-ECRE-luc reporter in transfected CV-1 cells. The class given is cell-based. The note with it: 18 hrs incubation, luminescence, compounds with maximum efficacy <25% of the Fexarmine control classified as '+'. The gist of the method: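 First, CV-1 cells were grown overnight in stripped-serum DMEM, then transfected for 18 h with expression plasmids for human FXR and RXR plus a TK-ECRE luciferase reporter and YFP. Next, serially diluted compounds were applied for 18 h, and lysates were read by luminescence.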

As for `COc1ncc(-c2ccnc(N(C[C@H]3CC[C@H](c4ccc(OC)c(C)c4)CC3)C(=O)[C@H]3CC[C@H](O)CC3)c2)s1` [Compound 6.01, trans-4-Hydroxy-N-((trans-4-(4-methoxy-3-methylphenyl)cyclohexyl)methyl)-N-(4-(2-methoxythiazol-5-yl)pyridin-2-yl)cyclohexanecarboxamide], the EC50 is not above 250 nM.

As for `COc1ccc([C@H]2CC[C@H](CN(c3cccc(-c4cnc(C(C)C)s4)c3)C(=O)[C@H]3CC[C@H](O)CC3)CC2)cc1C` [Compound 7.06], the EC50 was not above 250 nM.

As for `COc1ccc([C@H]2CC[C@H](CN(c3cccc(COc4nccs4)c3)C(=O)[C@H]3CC[C@H](O)CC3)CC2)cc1C` [Compound 17, trans-4-Hydroxy-N-((trans-4-(4-methoxy-3-methylphenyl)cyclohexyl)methyl)-N-(3-((thiazol-2-yloxy)methyl)phenyl)cyclohexanecarboxamide], the EC50 is not above 250 nM.

In turn, `COc1ncc(-c2cccc(N(C[C@H]3CC[C@H](c4ccc(OC)c(C)c4)CC3)C(=O)[C@H]3CC[C@H](OC(C)C)CC3)c2)s1` [Compound 9.34, trans-4-Isopropoxy-N-((trans-4-(4-methoxy-3-methylphenyl)cyclohexyl)methyl)-N-(3-(2-methoxythiazol-5-yl)phenyl)cyclohexanecarboxamide] returned an EC50 not above 250 nM.

Turning to `COc1ncc(-c2cccc(N(CC34CCC(c5ccc(OC)c(C)c5)(CC3)CC4)C(=O)[C@H]3CC[C@H](O)CC3)c2)s1` [Compound 11, trans-4-Hydroxy-N-((4-(4-methoxy-3-methylphenyl)bicyclo[2.2.2]octan-1-yl)methyl)-N-(3-(2-methoxythiazol-5-yl)phenyl)cyclohexanecarboxamide], the EC50 is not above 250 nM.

Consider `CCOc1ncc(-c2cccc(N(C[C@H]3CC[C@H](c4ccc(OC)c(C)c4)CC3)C(=O)[C@H]3CC[C@H](O)CC3)c2)s1` [Compound 7.16, trans-N-(3-(2-Ethoxythiazol-5-yl)phenyl)-4-hydroxy-N-((trans-4-(4-methoxy-3-methylphenyl)cyclohexyl)methyl) cyclohexanecarboxamide], for which the EC50 is not above 250 nM.

`COc1ncc(-c2cccc(N(C[C@H]3CC[C@H](c4cnc(OC)c(Cl)c4)CC3)C(=O)[C@H]3CC[C@H](O)CC3)c2)s1` [Compound 9.04, trans-N-((trans-4-(5-Chloro-6-methoxypyridin-3-yl)cyclohexyl)methyl)-4-hydroxy-N-(3-(2-methoxythiazol-5-yl)phenyl)cyclohexanecarboxamide] displayed an EC50 not above 250 nM.

For `COc1ncc(-c2cccc(N(C[C@H]3CC[C@H](c4ccc5scnc5c4)CC3)C(=O)[C@H]3CC[C@H](O)CC3)c2)s1` [Compound 9.09, trans-N-((trans-4-(Benzo[d]thiazol-5-yl)cyclohexyl)methyl)-4-hydroxy-N-(3-(2-methoxythiazol-5-yl)phenyl)cyclohexanecarboxamide], the EC50 was not above 250 nM.

Regarding `COc1ncc(-c2cccc(N(C[C@H]3CC[C@H](c4ccc(N(C)C)nc4)CC3)C(=O)[C@H]3CC[C@H](O)CC3)c2)s1` [Compound 9.08, trans-N-((trans-4-(6-(Dimethylamino)pyridin-3-yl)cyclohexyl)mtehyl)-4-hydroxy-N-(3-(2-methoxythiazol-5-yl)phenyl)cyclohexanecarboxamide], the EC50 is not above 250 nM.

As for `COc1ccc([C@H]2CC[C@H](CN(c3cccc(-c4cnc(C5CC5)s4)c3)C(=O)[C@H]3CC[C@H](O)CC3)CC2)cc1C#N` [Compound 7.29, trans-N-((trans-4-(3-Cyano-4-methoxyphenyl)cyclohexyl)methyl)-N-(3-(2-cyclopropylthiazol-5-yl)phenyl)-4-hydroxycyclohexanecarboxamide], the EC50 is not above 250 nM.

The compound `COc1ccc([C@H]2CC[C@H](CN(c3cccc(-c4cnc(C5CC5)s4)c3)C(=O)[C@H]3CC[C@H](O)CC3)CC2)nc1C` [Compound 9.19, trans-N-(3-(2-Cyclopropylthiazol-5-yl)phenyl)-4-hydroxy-N-((trans-4-(5-methoxy-6-methylpyridin-2-yl)cyclohexyl)methyl)cyclohexanecarboxamide] came in with an EC50 not above 250 nM.

`COc1ccc([C@H]2CC[C@H](CN(c3cccc(-c4sc(C)nc4C)c3)C(=O)[C@H]3CC[C@H](O)CC3)CC2)cc1C` [Compound 7.04, trans-N-(3-(2,4-Dimethylthiazol-5-yl)phenyl)-4-hydroxy-N-((trans-4-(4-methoxy-3-methylphenyl)cyclohexyl)methyl) cyclohexanecarboxamide]: the EC50 was not below 1000 nM.

In turn, `COc1ncc(-c2cccc(N(C[C@H]3CC[C@H](c4ccc(OC)c(C)c4)CC3)C(=O)C3CCOCC3)c2)s1` [Compound 9.30, N-((trans-4-(4-Methoxy-3-methylphenyl)cyclohexyl)methyl)-N-(3-(2-methoxythiazol-5-yl)phenyl)tetrahydro-2H-pyran-4-carboxamide] showed an EC50 not above 250 nM.

Regarding `CN(C)c1ccc(C23CCC(CN(c4cccc(-c5cnc(C6CC6)s5)c4)C(=O)[C@H]4CC[C@H](O)CC4)(CC2)CC3)cn1` [Compound 9.13, trans-N-(3-(2-Cyclopropylthiazol-5-yl)phenyl)-N-((4-(6-(dimethylamino)pyridin-3-yl)bicyclo[2.2.2]octan-1-yl)methyl)-4-hydroxycyclohexanecarboxamide], the EC50 is not above 250 nM.

Compound `CCn1cc([C@H]2CC[C@H](CN(c3cccc(-c4cnc(C5CC5)s4)c3)C(=O)[C@H]3CC[C@H](O)CC3)CC2)cn1` [Compound 9.18, trans-N-(3-(2-Cyclopropylthiazol-5-yl)phenyl)-N-((trans-4-(1-ethyl-1H-pyrazol-4-yl)cyclohexyl)methyl)-4-hydroxycyclohexanecarboxamide] showed an EC50 not above 250 nM.

In the case of `CCc1ncc(-c2cccc(N(C[C@H]3CC[C@H](c4ccc(OC)c(C)c4)CC3)C(=O)[C@H]3CC[C@H](O)CC3)c2)s1` [Compound 7.05, trans-N-(3-(2-Ethylthiazol-5-yl)phenyl)-4-hydroxy-N-((trans-4-(4-methoxy-3-methylphenyl)cyclohexyl)methyl) cyclohexanecarboxamide], the EC50 was not above 250 nM.

Take `Cn1ncc2cc([C@H]3CC[C@H](CN(c4cccc(-c5cnc(C6CC6)s5)c4)C(=O)[C@H]4CC[C@H](O)CC4)CC3)ccc21` [Compound 9.16, trans-N-(3-(2-Cyclopropylthiaol-5-yl)phenyl)-4-hydroxy-N-((trans-4-(1-methyl-1H-indazol-5-yl)cyclohexyl)methyl)cyclohexanecarboxamide]: the EC50 was not above 250 nM.

`COc1ccc([C@H]2CC[C@H](CN(c3cccc(-c4csc(C)n4)c3)C(=O)[C@H]3CC[C@H](O)CC3)CC2)cc1C` [Compound 7.02, trans-4-Hydroxy-N-((trans-4-(4-methoxy-3-methylphenyl)cyclohexyl)methyl)-N-(3-(2-methylthiazol-4-yl)phenyl)cyclohexanecarboxamide] showed an EC50 of 250 to 1000 nM.

On to `COc1ccc([C@H]2CC[C@H](CN(c3cccc(-c4cnc(C(C)C)s4)c3)C(=O)[C@H]3CC[C@H](O)CC3)CC2)nc1C` [Compound 9.27, trans-4-Hydroxy-N-(3-(2-isopropylthiazol-5-yl)phenyl)-N-((trans-4-(5-methoxy-6-methylpyridin-2-yl)cyclohexyl)methyl)cyclohexanecarboxamide], for which the EC50 is not above 250 nM.

Consider `COc1ccc([C@H]2CC[C@H](CN(c3cccc(NCc4nccs4)c3)C(=O)[C@H]3CC[C@H](O)CC3)CC2)cc1C` [Compound 15, trans-4-Hydroxy-N-((trans-4-(4-methoxy-3-methylphenyl)cyclohexyl)methyl)-N-(3-((thiazol-2-ylmethyl)amino)phenyl)cyclohexanecarboxamide], for which the EC50 was in the range of 250 to 1000 nM.

Turning to `COc1ncc(-c2cccc(N(C[C@H]3CC[C@H](c4ccc5c(c4)OCO5)CC3)C(=O)[C@H]3CC[C@H](O)CC3)c2)s1` [Compound 9.14, trans-N-((trans-4-(Benzo[d][1,3]dioxol-5-yl)cyclohexyl)methyl)-4-hydroxy-N-(3-(2-methoxythiazol-5-yl)phenyl)cyclohexanecarboxamide], the EC50 is not above 250 nM.

In turn, `COc1ccc([C@H]2CC[C@H](CN(c3cccc(-c4cnc(C5CC5)s4)c3)C(=O)[C@H]3CC[C@H](O)CC3)CC2)cc1S(C)(=O)=O` [Compound 9.26, trans-N-(3-(2-Cyclopropylthiazol-5-yl)phenyl)-4-hydroxy-N-((trans-4-(4-methoxy-3-(methylsulfonyl)phenyl)cyclohexyl)methyl) cyclohexanecarboxamide] displayed an EC50 not above 250 nM.
